Results on two molecules are retold here after patent publication US10398682B2, “Methods and compositions to prevent or treat bacterial infections” (THE BOARD OF REGENTS OF THE UNIVERSITY OF TEXAS SYSTEM, priority 2013, dated 2019).

The subject of series [1] is Acinetobacter baumannii. Briefly: SIgA breakdown / secretory component liberation by Acinetobacter baumannii (Western blot). The class given is cell-based. The following applies: for SC liberation / SIgA reduction: 2 hours after incubation. Here is the method:
Acinetobacter baumannii was incubated with 50 μg/mL SIgA to examine breakdown of the immunoglobulin. Breakdown of SIgA by A. baumannii was observed by liberation of secretory component from dimeric IgA. Goat anti-human secretory component (free and bound) antibody was used to monitor this occurrence though Western blot. A mixture of A. baumannii strain CI 79 was prepared in three concentrations—10^7, 10^6, and 10^5 CFU/mL—to determine whether SIgA breakdown was dose dependent with respect to bacterial concentration FIG. 1A. […] Next, two competitive inhibitors of reductase enzymes targeting the thioredoxin fold (-C-X-X-C-) motif typically found in thiol-reductase enzymes (thioredoxin, glutathione, thioredoxin reductase, etc) were identified. The first, dithionitrobenzoic acid (Ellman's reagent) is often used as a colorimetric substrate to monitor thioredoxin activity as it produces a bright yellow color upon cleavage of the disulfide bond within the molecule. The second is PX-12. […] Although not shown here, inhibition was still evident at 24 hours with Ellman's reagent, PX-12 inhibition seemed to be overcome by the bacteria after about 12 hours. […] (Error bars represent±SEM in all graphs; statistical differences determined by ANOVA with Dunnett correction; *significance p<0.01; **p<0.001).
A general note: In western blotting, separated proteins are transferred to a membrane and probed.

The subject of series [2] is A. baumannii strain CI 79. Nature of the series: Bacterial adherence to mouse intestinal sections. Type of series: cell-based, Acinetobacter baumannii. The method, then: Intestinal sections were cut down one side to expose the inner lumen of the intestine and individually placed in suspensions of A. baumannii strain CI 79 (10^7 CFU/mL). The sections were incubated in this mixture for 30 minutes, washed twice in 250 volumes of sterile PBS and soaked in 500 volumes of PBS (volume of section ˜50-100 μL) for five minutes. The remaining bound bacteria were enumerated through homogenization of each section into single cell suspensions in 10 mL sterile PBS followed by dilution plating.

In series [3] the test system is multi-drug resistant (MDR) Acinetobacter baumannii clinical isolates. Nature of the series: Minimum inhibitory concentration (MIC) determination. The class given is cell-based. The method, then:
PX-12 concentrations used in these experiments approximated the concentration reported “well tolerated” by mice (˜500 μg/mouse; 500 μg/mL for this experiment). […] Furthermore, this concentration was also bactericidal leading us to believe it may potentially be useful as a new antimicrobial compound for treating MDR Acinetobacter baumannii. (Bacterial concentrations used in presented studies ˜100× higher than recommended by CLSI standards)

Series [4] relates to Acinetobacter baumannii. Briefly: Repeat MIC experiment performed to CLSI standards. The class given is cell-based.
For series [5] the following is noted: humans; 300 mg/m^2 dose level; cited from earlier work.
For series [6] the following is noted: mouse, in vivo; cited from earlier work.
Where [7] appears, read: cation adjusted Mueller Hinton broth, ~5×10^5 CFU/mL, 64 to 0.5 μg/mL tested.

Structures are written as SMILES. In brackets after ≈: the same amount, converted by molar mass.

Consider `CCC(C)SSc1ncc[nH]1` (stereo not drawn) [PX-12, 1-methylpropyl 2-imidazolyl disulfide], for which, in the series on Acinetobacter baumannii [1] (inhibitor 15 μg/mL), the SC liberation entry is reported as “completely ablated” and the SIgA reduction entry is listed as “completely ablated”. Besides, in the series with Acinetobacter baumannii [1] (not shown), the “time after which inhibition is overcome by the bacteria” value is “about 12 hours”. Also, the “SIgA breakdown by Acinetobacter baumannii” value with Acinetobacter baumannii [1] (up to 2 hours following treatment with 18 μg/mL) was “significantly reduced”. Moreover, the “bacterial adherence to intestinal sections” value in series [2] (18 μg/mL, sections from WT C57BL/6 mice) is listed as “significantly inhibits”. The “reduction of bacterial attachment” value in series [2] (WT intestinal sections as 100% control, A. baumannii CI 79 10^7 CFU/mL, 30 minutes) worked out at 40%. In addition, the “bactericidal effect at the MIC” value in series [3] (31.25 μg/mL) is on record as “bactericidal”. The bacterial pellet size result in series [3] (500 μg/mL) is “visible decrease”. Besides, the MIC (as a rule, the smallest concentration in the dilution series that meets the test's criterion for growth inhibition) in series [3] (Acinetobacter baumannii, MDR clinical isolates, with one exception, bacterial concentrations ~100× higher than CLSI) was determined as 31.2 µg/mL (≈ 166 µM). In the series on Acinetobacter baumannii [4] (setting [7]), the MBC entry is recorded as “low” and the minimal inhibitory concentration (MIC) result is listed as “low”. Besides, the “type of antimicrobial activity” value with Acinetobacter baumannii [4] (concluded from MIC and MBC) is given as “bactericidal activity”. In series [5], the dose-limiting toxicities entry is “Grade 3 hypoxia and Grade 2 reversible bilateral pneumonitis”. For the same molecule, in series [6], the “concentration reported well tolerated” value was roughly 500 μg/mouse.

With `O=C(O)c1cc(SSc2ccc([N+](=O)[O-])c(C(=O)O)c2)ccc1[N+](=O)[O-]` [dithionitrobenzoic acid], in the series on Acinetobacter baumannii [1] (inhibitor 1 mM), the SC liberation result was “completely ablated” and the SIgA reduction result is “completely ablated”. Also, the “inhibition of SIgA reduction at 24 hours” value in the series on Acinetobacter baumannii [1] (24 hours, not shown) was “still evident”. The “SIgA breakdown by Acinetobacter baumannii” value in the series with Acinetobacter baumannii [1] (after addition of the substrate, concentration not given) is reported as “significantly reduced”.
